Assays:
alkB mutants = conditions: MMS 20 mM, alkB mutants compared with WT, FIG. 1
WT E. coli = assay: Alkylating-agent sensitivity assay (colony forming units); conditions: MMS 20 mM, 30 minutes at 37° C., FIG. 1

## COS(C)(=O)=O [MMS, Methyl methanesulfonate]
alkB mutants
  Sensitivity to MMS (CFU): significantly increased
WT E. coli
  effect on bacterial growth (CFU): minimal effect on bacterial growth
